Assay results published in patent publication US20030138857A1, “Method of inhibiting atherosclerotic plaque destabilization” (priority 2002, published 2003).
Where “and” joins values, the source holds several entries; their conditions need not be identical. Equal values may be shown once. Where a SMILES comes first, the peptide text is derived from it. The star is where a group is joined. Cbz = O=C(OCc1ccccc1)*; CH2F = FC*

System: VSMCs
Assay: Monocyte/VSMC co-culture apoptosis assay (Hoechst 33342/propidium iodide, apoptotic index)
Format: cell-based, human
Conditions: for inhibition of M-CSF-triggered, monocyte-induced apoptosis of VSMCs: eptifibatide 5 μg/ml, tirofiban 0.35 μg/ml, compared with abciximab; for VSMC apoptosis: M-CSF 100 ng/mL
Method: VSMCs (passage 3 to 7) were obtained from Clonetics and from heart donors. VSMC identity was confirmed by α-smooth muscle actin staining. VSMCs initially were grown in growth medium (SmGM2; Clonetics) with 5% serum, and at 60% to 70% confluence, the media was changed to a serum-free medium (50:50 of DMEM/F12 media with 5 mL of ITS, PSA, L-glutamine, and nonessential amino acids per 500 mL of solution). After 72-hour incubation in the serum-free medium, VSMCs were co-cultured with monocytes. Co-culture experiments were also conducted with the use of SmGM2 media (5% serum) throughout the experiment.
Leukocytes were isolated from buffy coat preparations (American Red Cross) by means of the Ficoll-Paque gradient method. Monocytes were isolated by means of an indirect magnetic labeling system and a monocyte isolation kit. The purity of monocytes obtained was […], which was confirmed by flow cytometry with anti-CD-14-FITC and anti-CD45-PE antibodies.
Freshly isolated monocytes were added 3:1 to VSMCs. Conditions included wells with VSMCs alone (with or without M-CSF) and VSMCs co-cultured with monocytes (with and without M-CSF). Experiments were conducted with either no serum or 5% serum in media. Experiments were also repeated by preincubating VSMCs with a pan-caspase inhibitor (1 hour at 37° C.) (ZVAD-fmk [10 μmol/L/mL]; sequence Z-Val-Ala-Asp [Ome]-CH2 F), before addition of the MMs and M-CSF. Media and ZVAD-fmk were replenished every 24 hours. Specific controls were used for VSMCs with ZVAD-fmk.
Abciximab, aggrastat, and eptifibatide, 3 established parenteral glycoprotein (GP) IIb/IIIa blockers, were added to MM and VSMC co-cultures before exposure to M-CSF. Controls were used for VSMCs with abciximab, aggrastat, and eptifibatide separately, with or without M-CSF. All experiments were done in triplicate.
Experiments were done with the use of recombinant human IL-1 β (100 to 1000 pg/mL) in place of M-CSF. Anti-human M-CSF neutralizing antibody (1 μg/mL) was added along with IL-1 β, and the VSMCs plus monocytes were co-cultured for 72 hours. Isotype control, IgG2a (clone 20102.1), was used for VSMCs cultured with monocytes and IL-1 β.
After 72-hour incubation, MM and VSMC co-cultures were stained live with the Vybrant Apoptosis kit (Molecular Probes), consisting of 2 nuclear stains, Hoechst 33342 (5 mg/mL) and propidium iodide (1 mg/mL). After incubation for 20 minutes at 37° C., coverslips were washed and the cell death index was estimated as previously described (Webster et al, J. Clin. Invest. 104:239-252 ([…])) (apoptotic index=dead cells/[live cells+dead cells]×100).

Molecule: N=C(N)NCCCC[C@@H]1NC(=O)CCSSC[C@@H](C(N)=O)NC(=O)[C@@H]2CCCN2C(=O)[C@H](Cc2c[nH]c3ccccc23)NC(=O)[C@H](CC(=O)O)NC(=O)CNC1=O [eptifibatide, reference compound] (HELM PEPTIDE1{[O=C(CCS[*:3])[*:2]].[N=C(N)NCCCC[C@H](N[*:1])C(=O)[*:2]].G.D.W.P.C.[am]}$PEPTIDE1,PEPTIDE1,1:R3-7:R3$$$V2.0)
- cell death index (eptifibatide 5 μg/mL, VSMCs with monocytes and M-CSF): 51.3±2.2%
- inhibition of M-CSF-triggered, monocyte-induced apoptosis of VSMCs: unable to confer similar protection

Molecule: COC(=O)C[C@H](NC(=O)[C@H](C)NC(=O)[C@@H](NC(=O)OCc1ccccc1)C(C)C)C(=O)CF [ZVAD-fmk, Z-Val-Ala-Asp [Ome]-CH2 F, reference compound] (Cbz-Val-Ala-Asp(OMe)-CH2F)
- apoptosis induced by co-culture with activated monocytes (VSMCs preincubated with ZVAD-fmk (10 μmol/L/mL)): completely abrogated
- apoptotic index of VSMCs (VSMCs preincubated with ZVAD-fmk (10 μmol/L/mL), co-cultured with monocytes and M-CSF, 72 h): 15.4±0.4%

Molecule: CCCCS(=O)(=O)N[C@@H](Cc1ccc(OCCCCC2CCNCC2)cc1)C(=O)O [tirofiban, reference compound]
- inhibition of M-CSF-triggered, monocyte-induced apoptosis of VSMCs: unable to confer similar protection
- cell death index (tirofiban 0.35 μg/mL, VSMCs with monocytes and M-CSF): 65.0±3.4%

Molecule: IL-1: recombinant human IL-1 β, monocyte-activating cytokine (R&D Systems)
- apoptotic index of VSMCs (VSMCs with monocytes and IL-1 100 pg/mL in place of M-CSF): 10.5±2.4%
- monocyte-induced VSMC death (VSMCs with monocytes and IL-1 500 pg/mL): 59.5±3.5%
- monocyte-induced VSMC death (VSMCs with monocytes and IL-1 1000 pg/mL (1 ng/mL)): 59±3.8%

B1: abciximab: chimeric monovalent and humanized monoclonal antibody Fab fragment; GP IIb/IIIa blocker that binds Mac-1 (antibody, chains of the INN, looked up, V domains shown)
VH: EVQLQQSGTVLARPGASVKMSCEASGYTFTNYWMHWVKQRPGQGLEWIGAIYPGNSDTSYIQKFKGKAKLTAVTSTTSVYMELSSLTNEDSAVYYCTLYDGYYVFAYWGQGTLVTVSA
VL: EIVLTQSPVTLSVTPGDSVSLSCRASRDISNNLHWFQQTSHESPRLLIKYASQSMSGIPSRFSGSGSGTDFTLSINSVETEDFGMYFCQQTNSWPYTFGGGTKLEIK
modifications: Fab
- apoptotic index of VSMCs (abciximab 7 μg/mL, VSMCs with monocytes and M-CSF): 19.1±2.3% and 19.1±2.2%
- apoptotic index of VSMCs (abciximab 7 μg/mL, VSMCs with monocytes and M-CSF, listed as Abciximab): 19.1±2.2%

B2: M-CSF: recombinant macrophage colony-stimulating factor (R&D Systems), hematopoietic growth factor (protein, UniProt P09603 33-554, looked up)
Macrophage colony-stimulating …: EEVSEYCSHMIGSGHLQSLQRLIDSQMETSCQITFEFVDQEQLKDPVCYLKKAFLLVQDIMEDTMRFRDNTPNAIAIVQLQELSLRLKSCFTKDYEEHDKACVRTFYETPLQLLEKVKNVFNETKNLLDKDWNIFSKNCNNSFAECSSQDVVTKPDCNCLYPKAIPSSDPASVSPHQPLAPSMAPVAGLTWEDSEGTEGSSLLPGEQPLHTVDPGSAKQRPPRSTCQSFEPPETPVVKDSTIGGSPQPRPSVGAFNPGMEDILDSAMGTNWVPEEASGEASEIPVPQGTELSPSRPGGGSMQTEPARPSNFLSASSPLPASAKGQQPADVTGTALPRVGPVRPTGQDWNHTPQKTDHPSALLRDPPEPGSPRISSLRPQGLSNPSTLSAQPQLSRSHSSGSVLPLGELEGRRSTRDRRSPAEPEGGPASEGAARPLPRFNSVPLTDTGHERQSEGSFSPQLQESVFHLLVPSVILVLLAVGGLLFYRWRRRSHQEPQRADSPLEQPEGSPLTQDDRQVELPV
- VSMC apoptosis (VSMCs in direct contact with activated monocytes): 66.3±1.8%
- VSMC apoptosis (monocytes separated from VSMCs by porous insert (3-μm pores)): 21.0±1.0%
- apoptotic index of VSMCs (VSMCs cultured with M-CSF (100 ng/mL) but without monocytes): 15.7±1.5%
- apoptotic index of VSMCs (VSMCs cultured with both M-CSF (100 ng/mL) and monocytes, 4 sets of experiments): 58.8±3.3%
- apoptotic index of VSMCs (VSMCs with M-CSF-activated monocytes, no inhibitor (comparison group of later experiments; M-CSF concentration not given)): 60±2.1% and 60.0±3.0% and 51.9±1.6% and 51.9±1.8%
